Laboratory results as given in patent publication US8178324B2, “Deracemisation of amines” (Ingenza Limited, priority 2002, dated 2012).
Entries after “also recorded” stand apart in the source; their conditions may differ. Read-outs that look alike come from different tables or passages of the source.

Legend:
[1] = biological target: T1, N336S mutant A. niger monoamine oxidase (Aspergillus niger, UniProt P46882, A300V/K348M/L304V/N336S/R450G); assay type: biochemical; set-up: key to Relative Rate (symbol): *: No measurable rate; settings: for Relative Rate: relative to (S)-α Methylbenzylamine = 1
T1 construct: made in house; host or cells: E. coli BL21(DE3), pET16b
Procedure: (§1) 5 ml phosphate buffer (1 M, pH 7.6)
(§2) 500 μl 2,4,6-tribromo-3-hydroxybenzoic acid (2% in DMSO)
(§3) 37.5 μl 4-aminoantipyrine (1.5 M) • 30 μl amine substrate (final concentration 0.015-5 mM) • 44.4 ml water
(§4) Assay Conditions: • 990 μl assay mixture • 5 μl horse radish peroxidase (1 mg·ml^−1) • 10 μl enzyme
(§5) The spectrophotometer was blanked against assay mixture and HRP. Enzyme was added and the absorbance at 500 nm measured at 3 s intervals for a 10 minute period.
The activity of the mutant enzyme described above was studied in relation to a variety of amine substrates. […]

[2] = biological target: T2, wild-type A. niger MAO-N enzyme (Aspergillus niger, UniProt P46882, A300V/K348M/L304V/R450G); assay: Colorimetric hydrogen peroxide (HRP/TBHBA/4-aminoantipyrine) amine oxidase assay, purified wild-type enzyme; assay type: biochemical; settings: for kcat, Wild-type Enzyme: purified wild-type enzyme, active enzyme from FAD absorbance at 458 nm
T2 construct: made in house; host or cells: E. coli BL21(DE3), pET16b
Procedure: (§6) The wild-type enzyme was also purified by the same protocol and the two enzymes compared for substrate specificity and enantioselectivity.
as §1, §2, §3, §4, §5
(§7) The Km values were calculated using ‘KaleidaGraph for Windows’ (Synergy Software). For calculation of the kcat, the active enzyme concentration was determined by estimating the FAD content from the absorbance at 458 nm using an extinction coefficient of 11 mM^−1 cm^−1 (see ref 12).

MAO mutant N336S = biological target: T3, MAO mutant N336S (Aspergillus niger, UniProt P46882, A300V/K348M/L304V/N336S/R450G); assay: Stereoinversion reaction with MAO mutant N336S and ammonia-borane, HPLC monitoring; assay type: biochemical; settings: ammonia-borane, 30° C., 24 hours
T3 construct: made in house; host or cells: E. coli BL21(DE3), pET16b
Procedure: More Specifically, MAO mutant N336S (100 μl of 0.193 U·ml^−1=0.02 U) was added to a solution of L-AMBA (0.13 μl, final concentration=0.4 mM) and ammonia-borane complex (10 μl of 4M solution, final concentration=80 mM, 200 eq) in phosphate buffer (400 μl, 20 mM, pH8). A 10 μl aliquot was diluted in 990 μl perchloric acid, pH 1.5 and analysed by HPLC. The reaction mixture was incubated at 30° C. and the reaction monitored by HPLC at regular intervals until no further reaction was observed.
Analytical conditions: Column=Chiralcel CrownPak CR+ • Mobile phase=100% perchloric acid, pH 1.5 • Flow rate=0.8 ml·min^−1 • Detection=200 nm • Temperature=25° C. • r.t. (L-AMBA)=12.8 min • r.t. (D-AMBA)=16.5 min

[3] = biological target: T4, mutant A. niger monoamine oxidase (N336S) (Aspergillus niger, UniProt P46882, A300V/K348M/L304V/N336S/R450G); assay: Colorimetric hydrogen peroxide amine oxidase assay, purified mutant enzyme (N336S); assay type: biochemical
T4 construct: made in house; host or cells: E. coli BL21(DE3), pET16b
Procedure: as §6
The mutated gene was also sequenced and the sequence is shown in SEQ ID NO: 2. There was a single amino acid change from the wild-type enzyme with serine replacing asparagine at position 336.
LB medium (6×300 ml) containing ampicillin (100 μg·ml^−1) in 1 L baffled flasks was inoculated with a single colony of monoamine oxidase mutant from an LB agar plate. Cultures were incubated at 30° C. for 22 hours (OD600˜3.6) then harvested and washed with phosphate buffer (50 mM, pH 8) to yield a yellow-brown pellet (11.2 g).
The pellet was resuspended in Tris/HCl buffer (25 mM, pH 7.8, 30 ml) and sonicated on ice (30 s on, 30 s off for 10 minutes). The suspension was then centrifuged (20,000 rpm, 4° C.) until clear supernatant was obtained and the supernatant dialysed against Tris/HCl buffer (25 mM, pH 7.8). The cell free extract was filtered through 0.45 μm sterile membrane and chromatographed on a QSepharose anion exchange column. Fractions were assayed using colorimetric hydrogen peroxide based assay and active fractions were stored at −80° C. The active fraction has a protein content of 1 mg·ml^−1, and a specific activity of 0.193 U·mg^−1 against amylamine.
as §1, §2, §3, §4, §5, §7

[4] = biological target: T5, mutant amine oxidase (N336S) (Aspergillus niger, UniProt P46882, A300V/K348M/L304V/N336S/R450G); assay: Chiral HPLC (Chiralcel CrownPak CR+) check of oxidation by the mutant; assay type: biochemical; settings: after 24 h
T5 construct: made in house; host or cells: E. coli BL21(DE3), pET16b
Procedure: The data reveal that the activity of the mutant amine oxidase towards L-AMBA (kcat=8.0 min-1) is 47 fold higher than the wild-type (kcat=0.17 min-1). Moreover the selectivity of the mutant for the L-enantiomer versus D-AMBA (ca. 100:1) has also been increased relative to the wild type enzyme (ca. 17:1). Thus the outcome of the in vitro evolution experiments has been to simultaneously improve both the enantioselectivity and catalytic activity of the enzyme. For comparison, the activity towards the best substrate for the wild-type enzyme, namely amylamine, and also benzylamine, is presented.

[5] = biological target: Type II monoamine oxidase from Aspergillus niger (MAO-N) (Aspergillus niger, UniProt P46882, A300V/K348M/L304V/R450G); settings: literature refs 10-12; cited from earlier work
Sequence of Type II monoamine oxidase from Aspergillus niger (MAO-N) (P46882 whole entry A300V/L304V/K348M/R450G): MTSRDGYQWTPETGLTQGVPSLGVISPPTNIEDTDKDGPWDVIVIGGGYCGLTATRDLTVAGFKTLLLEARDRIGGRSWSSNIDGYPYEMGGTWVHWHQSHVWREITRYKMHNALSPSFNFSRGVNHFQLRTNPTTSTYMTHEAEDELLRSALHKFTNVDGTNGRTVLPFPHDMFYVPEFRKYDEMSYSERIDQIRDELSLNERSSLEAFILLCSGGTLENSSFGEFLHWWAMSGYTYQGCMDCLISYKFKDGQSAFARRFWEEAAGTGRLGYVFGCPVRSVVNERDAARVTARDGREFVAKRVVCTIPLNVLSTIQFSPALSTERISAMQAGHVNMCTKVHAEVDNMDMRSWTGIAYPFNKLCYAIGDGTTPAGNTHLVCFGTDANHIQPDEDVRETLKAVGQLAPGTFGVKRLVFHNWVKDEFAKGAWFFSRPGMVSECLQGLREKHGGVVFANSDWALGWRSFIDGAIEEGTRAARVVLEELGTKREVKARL

T4 sequence (P46882 whole entry A300V/L304V/N336S/K348M/R450G): as the sequence (P46882 whole entry A300V/L304V/K348M/R450G) above, with N336S counted along it
T1 sequence (P46882 whole entry A300V/L304V/N336S/K348M/R450G): as the sequence (P46882 whole entry A300V/L304V/K348M/R450G) above, with N336S counted along it
T2 sequence (P46882 whole entry A300V/L304V/K348M/R450G): as the sequence (P46882 whole entry A300V/L304V/K348M/R450G) above
T3 sequence (P46882 whole entry A300V/L304V/N336S/K348M/R450G): as the sequence (P46882 whole entry A300V/L304V/K348M/R450G) above, with N336S counted along it
T5 sequence (P46882 whole entry A300V/L304V/N336S/K348M/R450G): as the sequence (P46882 whole entry A300V/L304V/K348M/R450G) above, with N336S counted along it

Row | Compound | Relative Rate (symbol) [1] | Relative Rate [1] | other results
1 | Cc1ccc([C@@H](C)N)cc1 | * | – | –
2 | Cc1ccc([C@H](C)N)cc1 | – | 0.28 | –
3 | CC(N)c1ccc(Br)cc1 (racemic) [(rac)-4-Bromo-α-phenylethylamine] | * | – | –
4 | CC(N)c1ccccc1 (racemic) [(rac)-α Methylbenzylamine] | * | – | –
5 | CC(C)CC(C)N (stereo not drawn) [1,3-Dimethylbutylamine] | – | 1.8 | –
6 | CC1CCCCC1N (stereo not drawn) [2-Methylcyclohexylamine] | – | 0.43 | –
7 | COc1ccc([C@@H](C)N)cc1 [(R)-1-4-Methoxyphenylethylamine] | – | 0.13 | –
8 | C[C@@H](N)C(C)(C)C [(R)-3-3-Dimethyl-2-butylamine] | * | – | –
9 | CC(C)[C@@H](C)N [(R)-3-Methyl-2-butylamine] | * | – | –
10 | C[C@@H](N)c1ccc(Br)cc1 [(R)-4-Bromo-α-phenylethylamine] | * | – | –
11 | C[C@@H](N)c1ccc([N+](=O)[O-])cc1 [(R)-α-Methyl-4-nitrobenzylamine] | – | 0.06 | –
12 | COc1ccc([C@H](C)N)cc1 [(S)-1-4-Methoxyphenylethylamine] | – | 0.81 | –
13 | C[C@H](N)C(C)(C)C [(S)-3-3-Dimethyl-2-butylamine] | – | 1.4 | –
14 | CC(C)[C@H](C)N [(S)-3-Methyl-2-butylamine] | – | 5.4 | –
15 | C[C@H](N)c1ccc(Br)cc1 [(S)-4-Bromo-α-phenylethylamine] | – | 0.24 | –
16 | C[C@H](N)c1ccc([N+](=O)[O-])cc1 [(S)-α-Methyl-4-nitrobenzylamine] | – | 0.91 | –
17 | CC(NC(C)c1ccccc1)c1ccccc1 (stereo not drawn) [Bis(α-methyl)benzylamine] | * | – | –
18 | CC(N)c1ccccc1 [D-AMBA, α-methylbenzylamine] | * | – | activity of the wild-type A. niger MAO-N enzyme ([2]; listed as D-enantiomer): even slower oxidation; kcat, Wild-type Enzyme [2]: 0.00017 s⁻¹; conversion under stereoinversion conditions (MAO mutant N336S): no conversion; also recorded: no reaction was observed; kcat, Mutant Enzyme ([3]; purified N336S mutant): 0.0013 s⁻¹; oxidation by the mutant seen by chiral HPLC [4]: no detectable conversion
19 | CCCCCCN [Hexylamine] | – | 18.6 | –
20 | CC(N)c1ccccc1 [L-AMBA, L-α-methylbenzylamine] | – | 1 | activity of the wild-type A. niger MAO-N enzyme [2]: very low, but measurable activity; kcat, Wild-type Enzyme [2]: 0.00283 s⁻¹; activity (kcat) of the mutant relative to the wild-type ([3]; mutant kcat versus wild-type kcat): 47 fold; Km ([3]; purified N336S mutant): 400 µM; kcat, Mutant Enzyme ([3]; purified N336S mutant): 0.133 s⁻¹; oxidation by the mutant seen by chiral HPLC [4]: complete oxidation
21 | CCCCCCCN [N-heptylamine] | – | 12.1 | –
22 | CCCCCN [amylamine] | – | 25.2 | kcat, Wild-type Enzyme [2]: 16.67 s⁻¹; reported activity of MAO-N [5]: high activity
23 | NCc1ccccc1 [benzylamine] | – | – | kcat, Wild-type Enzyme [2]: 6.18 s⁻¹; kcat, Mutant Enzyme ([3]; purified N336S mutant): 3.27 s⁻¹; reported activity of MAO-N [5]: active, albeit at a lower rate
24 | CCCCN [butylamine] | – | – | reported activity of MAO-N [5]: high activity
